This is an account of results in article PMC6838013, “Insight Into Mosquito GnRH-Related Neuropeptide Receptor Specificity Revealed Through Analysis of Naturally Occurring and Synthetic Analogs of This Neuropeptide Family” (Frontiers in Endocrinology, 2019).

The test system of assay [1] is A. aegypti ACP receptor (AedaeACPR). Kind of assay: Calcium bioluminescence (aequorin) reporter assay of heterologously expressed ACPR. It is filed as cell-based, Aedes aegypti. The note with it: for Fold-reduction in activity relative to AedaeACP: ACPR in CHO-K1 aequorin cells, relative to native Aedae-ACP; for EC50: CHO-K1 cells stably expressing aequorin, transiently transfected with ACPR and murine Gα15 (pBudCE4.1), luminescence 20 s, 3 to 4 independent biological replicates, ND = no determined EC50 due to minimal or no detectable activity up to 10 μM; for Activity on ACPR at the highest tested dose, in words: 10 μM, Figure 2, ANOVA and Tukey post-test. From the text: Therefore, to improve the bioluminescent signal linked to calcium mobilization following receptor activation, which was required in order to provide greater signal to noise ratio when testing ACP analogs with substitutions leading to intermediate levels of activation of the ACPR, we created a new mammalian expression construct using the dual promoter vector, pBudCE4.1. Specifically, we utilized a cloning strategy as reported previously ([41]) whereby the ACPR was inserted into the multiple cloning site (MCS) downstream of the CMV promoter in pBudCE4.1 using the sense primer SalI-KozakACPR, 5′-[…]-3′ and anti-sense primer XbaI-ACPR, 5′-[…]-3′, which directionally inserted the ACPR within the MCS downstream of the CMV promoter. Secondly, the murine homolog (Gα15) of the human promiscuous G protein, Gα16, which indiscriminately couples a wide variety of GPCRs to calcium signaling ([42]) was inserted into the MCS downstream of the EF1-α promoter in pBudCE4.1 using the sense primer NotI-Gα15, 5′-[…]-3′ and anti-sense primer BglII-Gα15, 5′-[…]-3′, which directionally inserted the murine Gα15 within the MCS downstream of the EF1-α promoter.
(§1) Functional activation of the AedaeACPR and AedaeAKHR-IA receptors was carried out following a previously described mammalian cell culture system involving a Chinese hamster ovary (CHO)-K1 cell line stably expressing aequorin ([43]). Cells were grown in DMEM:F12 media containing 10% heat-inactivated fetal bovine serum (Wisent, St. Bruno, QC), 200 μg/mL Geneticin, 1x antimycotic-antibiotic to approximately 90% confluency, and were transiently transfected using either Lipofectamine LTX with Plus Reagent or Lipofectamine 3000 transfection systems (Invitrogen, Burlington, ON) following manufacturer recommended DNA to transfection reagent ratios. Cells were detached from the culture flasks at 48 h post-transfection using 5 mM EDTA in Dulbecco's PBS. Cells were then prepared for the receptor functional assay following a procedure described previously ([27]). Stocks of peptide analogs of ACP and AKH were used for preparation of serial dilutions all of which were prepared in assay media (0.1% BSA in DMEM:F12) and loaded in quadruplicates into 96-well white luminescence plates (Greiner Bio-One, Germany). Cells were loaded with an automatic injector into each well of the plate containing different peptide analogs at various concentrations as well as negative control (assay media alone) and positive control wells (50 μM ATP). Immediately after injection of the cells, luminescence was measured for 20 s using a Synergy 2 Multi-Mode Microplate Reader (BioTek, Winooski, VT, USA). Calculations, including determination of EC50 values, were conducted in GraphPad Prism 7.02 (GraphPad Software, San Diego, USA) from dose-response curves from 3 to 4 independent biological replicates.
On the technique in general: In a reporter assay the amount or activity of a reporter protein is the signal.

The target of assay [2] is A. aegypti AKHR-IA receptor (AKHR-IA) (Aedes aegypti, UniProt A0A2P1A8S4). Kind of assay: Calcium bioluminescence (aequorin) reporter assay of heterologously expressed AKHR-IA. The format is cell-based. The note with it: for Fold-reduction in activity relative to Aedae-AKH: AKHR-IA in CHO-K1 aequorin cells, relative to native Aedae-AKH; for EC50: CHO-K1 cells stably expressing aequorin, transiently transfected with AKHR-IA (pcDNA3.1+), luminescence 20 s, 3 to 4 independent biological replicates, ND = no determined EC50 due to minimal or no detectable activity up to 10 μM. How it is done:
For each construct, an overnight liquid culture of clonal recombinant bacteria containing the appropriate plasmid construct was grown in antibiotic-containing LB media and used to isolate midiprep DNA using the PureLink Midiprep kit (Life Technologies, Burlington, ON). Midiprep samples were then quantified and sent for sequencing as described previously ([26], [27]).
as §1

“And” between values parts separate entries of the source, which are not always exact repeats. Equal entries are not always repeated. Non-standard residues stand in square brackets, D forms with d. Residues, ends and D or L forms follow the SMILES beside them. pGlu = O=C1CC[C@@H](C(=O)O)N1

The term EC50 denotes the concentration that produces a half-maximal response.

Sequence of A. aegypti AKHR-IA receptor (AKHR-IA) (A0A2P1A8S4 1-410): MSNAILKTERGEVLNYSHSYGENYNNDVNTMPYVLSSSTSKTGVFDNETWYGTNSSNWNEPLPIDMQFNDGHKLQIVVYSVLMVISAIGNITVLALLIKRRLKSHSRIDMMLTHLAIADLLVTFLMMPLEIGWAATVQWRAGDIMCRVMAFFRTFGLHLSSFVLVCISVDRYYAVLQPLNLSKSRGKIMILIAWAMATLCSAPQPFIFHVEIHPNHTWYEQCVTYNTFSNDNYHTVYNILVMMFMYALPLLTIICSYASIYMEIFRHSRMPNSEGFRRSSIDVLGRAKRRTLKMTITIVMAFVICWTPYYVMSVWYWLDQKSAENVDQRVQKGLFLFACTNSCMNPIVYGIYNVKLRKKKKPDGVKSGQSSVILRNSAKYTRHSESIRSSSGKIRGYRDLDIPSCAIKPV

Consider `CC(C)[C@H](NC(=O)[C@@H]1CCC(=O)N1)C(=O)N[C@H](C(=O)N[C@@H](Cc1ccccc1)C(=O)N[C@@H](CO)C(=O)N[C@@H](CCCNC(=N)N)C(=O)N[C@@H](CC(=O)O)C(=O)N[C@@H](Cc1c[nH]c2ccccc12)C(=O)N[C@@H](C)C(=O)N[C@@H](C)C(N)=O)[C@@H](C)O` [Aedae-ACP (A9)] ([pGlu]VTFSRDWAA-NH2), for which, in assay [1], the “Fold-reduction in activity relative to AedaeACP” value is listed as 0.2 fold and the EC50 is 4.96 nM.

As for “pQ-TFSRDWNAamide [Aedae-ACP (1,3-10), internally truncated ACP analog lacking valine in the second position]”, the “Fold-reduction in activity relative to AedaeACP” value in assay [1] is >1,000 fold.

Consider `CC(C)[C@H](NC(=O)[C@@H]1CCC(=O)N1)C(=O)N[C@H](C(=O)N[C@@H](Cc1ccccc1)C(=O)N[C@@H](CO)C(=O)N[C@@H](CCCNC(=N)N)C(=O)N[C@@H](C)C(=O)N[C@@H](Cc1c[nH]c2ccccc12)C(=O)N[C@@H](CC(N)=O)C(=O)N[C@@H](C)C(N)=O)[C@@H](C)O` [Aedae-ACP (A7)] ([pGlu]VTFSRAWNA-NH2), for which, in assay [1], the “Fold-reduction in activity relative to AedaeACP” value was determined as 15.9 fold and the EC50 worked out at 386 nM.

“pQLTFTSS-amide [Lacol-AKH-7mer, C-terminally truncated synthetic analog based on an endogenous peptide from Laconobia oleracea]”: in assay [2] (10 μM, luminescence relative to maximal response with 10^−5M Aedae-AKH), the “AKHR-IA activation at the highest tested concentration” value is reported as ~ 7%.

As for Ac-AVTFSRDWNA-NH2 [Aedae-ACP (A1b)], in assay [1], the “Fold-reduction in activity relative to AedaeACP” value is given as 43.6 fold and the concentration giving a half-maximal response (EC50) is 527 nM.

On to `CC(C)[C@H](NC(=O)[C@@H]1CCC(=O)N1)C(=O)N[C@H](C(=O)N[C@@H](Cc1ccccc1)C(=O)N[C@@H](CO)C(=O)N[C@@H](CCCNC(=N)N)C(=O)N[C@@H](CC(=O)O)C(=O)N[C@@H](Cc1c[nH]c2ccccc12)C(=O)N[C@@H](CC(N)=O)C(=O)N[C@@H](C)C(=O)NCC(N)=O)[C@@H](C)O` [Aedae-ACP (+G)] ([pGlu]VTFSRDWNAG-NH2), for which, in assay [1], the “Fold-reduction in activity relative to AedaeACP” value came out at 5.6 fold and the EC50 was 111 nM.

In the case of `CC(C)[C@H](NC(=O)[C@@H]1CCC(=O)N1)C(=O)N[C@H](C(=O)N[C@@H](Cc1ccccc1)C(=O)N[C@@H](CO)C(=O)N[C@@H](C)C(=O)N[C@@H](CC(=O)O)C(=O)N[C@@H](Cc1c[nH]c2ccccc12)C(=O)N[C@@H](CC(N)=O)C(=O)N[C@@H](C)C(N)=O)[C@@H](C)O` [Aedae-ACP (A6)] ([pGlu]VTFSADWNA-NH2), in assay [1], the “Fold-reduction in activity relative to AedaeACP” value is on record as 23.3 fold and the concentration giving a half-maximal response (EC50) amounted to 687 nM.

“pQLTFTSSWGGamide [Lacol-AKH, naturally-occurring insect AKH decapeptide]”: in assay [1], the “Activity on ACPR at the highest tested dose, in words” value (“Activity on ACPR” below) is reported as “low activity” and the “Fold-reduction in activity relative to AedaeACP” value was >1,000 fold.

Consider “pQVTASRDWNAamide [Aedae-ACP (A4), synthetic ACP analog, alanine at position 4]”, for which the “Fold-reduction in activity relative to AedaeACP” value in assay [1] is >1,000 fold.

As for `CC(C)[C@H](NC(=O)[C@@H]1CCC(=O)N1)C(=O)N[C@H](C(=O)N[C@@H](Cc1ccccc1)C(=O)N[C@H](C(=O)N1CCC[C@H]1C(=O)N[C@@H](CC(N)=O)C(=O)N[C@@H](Cc1c[nH]c2ccccc12)C(N)=O)[C@@H](C)O)[C@@H](C)O` [V^2-PeramCAH-II] ([pGlu]VTFTPNW-NH2), the “Fold-reduction in activity relative to Aedae-AKH” value in assay [2] is on record as 68.8 fold; in assay [2] (listed as V^2-Peram-CAH-II) it was 69 fold. Further, the EC50 in assay [2] worked out at 148 nM.

Regarding `CC(C)[C@H](NC(=O)[C@@H]1CCC(=O)N1)C(=O)N[C@H](C(=O)N[C@@H](Cc1ccccc1)C(=O)N[C@@H](C)C(=O)N[C@@H](CCCNC(=N)N)C(=O)N[C@@H](CC(=O)O)C(=O)N[C@@H](Cc1c[nH]c2ccccc12)C(=O)N[C@@H](CC(N)=O)C(=O)N[C@@H](C)C(N)=O)[C@@H](C)O` [Aedae-ACP (A5)] ([pGlu]VTFARDWNA-NH2), in assay [1], the “Fold-reduction in activity relative to AedaeACP” value was 44.9 fold and the EC50 was 1040 nM.

With `CC(C)[C@H](NC(=O)[C@@H]1CCC(=O)N1)C(=O)N[C@H](C(=O)N[C@@H](Cc1ccccc1)C(=O)N[C@@H](CO)C(=O)N[C@@H](CCCNC(=N)N)C(=O)N[C@@H](CC(=O)O)C(=O)N[C@@H](Cc1c[nH]c2ccccc12)C(=O)N[C@@H](CC(N)=O)C(N)=O)[C@@H](C)O` [Aedae-ACP (1-9)] ([pGlu]VTFSRDWN-NH2), in assay [1], the “Fold-reduction in activity relative to AedaeACP” value was 434.2 fold and the EC50 turned out to be 4150 nM.

As to H-AVTFSRDWNA-NH2 [Aedae-ACP (A1)], the EC50 in assay [1] was determined as 1580 nM.

For the molecule `CC(C)C[C@H](NC(=O)[C@@H]1CCC(=O)N1)C(=O)N[C@@H](CC(N)=O)C(=O)N[C@@H](Cc1ccccc1)C(=O)N[C@H](C(=O)N1CCC[C@H]1C(=O)N[C@@H](CO)C(=O)N[C@@H](Cc1c[nH]c2ccccc12)C(N)=O)[C@@H](C)O` [Erysi-AKH] ([pGlu]LNFTPSW-NH2), in assay [2], the “Fold-reduction in activity relative to Aedae-AKH” value is 310 fold and 309.9 fold; the EC50 was 669 nM.

“pQVTFSRDANAamide [Aedae-ACP (A8), synthetic ACP analog, alanine at position 8]”: the “Fold-reduction in activity relative to AedaeACP” value in assay [1] was >1,000 fold.

For `CC(C)C[C@H](NC(=O)[C@@H]1CCC(=O)N1)C(=O)N[C@H](C(=O)N[C@@H](Cc1ccccc1)C(=O)N[C@H](C(=O)N[C@@H](CO)C(=O)N[C@@H](CO)C(=O)N[C@@H](Cc1c[nH]c2ccccc12)C(N)=O)[C@@H](C)O)[C@@H](C)O` [Hipes-AKH-I] ([pGlu]LTFTSSW-NH2), in assay [2], the “Fold-reduction in activity relative to Aedae-AKH” value was found to be 7.6 fold and the EC50 came to 16.5 nM.

On to “pQLTFTPSWamide [Aedae-AKH, endogenous octapeptide adipokinetic hormone of Aedes aegypti]”, for which the “Activity on ACPR” value in assay [1] was “inactive”.

For “pQLTFSSGWGNamide [Helze-AKH, naturally-occurring insect AKH decapeptide]”, in assay [1], the “Activity on ACPR” value is “low activity” and the “Fold-reduction in activity relative to AedaeACP” value is listed as >1,000 fold.

Turning to `CC(C)[C@H](NC(=O)[C@@H]1CCC(=O)N1)C(=O)N[C@H](C(=O)N[C@@H](Cc1ccccc1)C(=O)N[C@@H](CO)C(=O)N[C@@H](CCCNC(=N)N)C(=O)N[C@@H](CC(=O)O)C(=O)N[C@@H](Cc1c[nH]c2ccccc12)C(N)=O)[C@@H](C)O` [Aedae-ACP (1-8)] ([pGlu]VTFSRDW-NH2), in assay [1], the “Fold-reduction in activity relative to AedaeACP” value is given as 410.1 fold and the EC50 worked out at 2160 nM.

As to “pQVTFSRDWNA-OH [Aedae-ACP (-OH), non-amidated (free acid) ACP analog]”, the “Fold-reduction in activity relative to AedaeACP” value in assay [1] was >1,000 fold.

In the case of `C[C@H](NC(=O)[C@H](CC(N)=O)NC(=O)[C@H](Cc1c[nH]c2ccccc12)NC(=O)[C@H](CC(=O)O)NC(=O)[C@H](CCCNC(=N)N)NC(=O)[C@H](CO)NC(=O)[C@H](Cc1ccccc1)NC(=O)[C@@H](NC(=O)[C@H](C)NC(=O)[C@@H]1CCC(=O)N1)[C@@H](C)O)C(N)=O` [Aedae-ACP (A2)] ([pGlu]ATFSRDWNA-NH2), the EC50 in assay [1] was 705 nM.

On to `CC[C@H](C)[C@H](NC(=O)[C@@H]1CCC(=O)N1)C(=O)N[C@H](C(=O)N[C@@H](Cc1ccccc1)C(=O)N[C@@H](CO)C(=O)N[C@@H](CCCNC(=N)N)C(=O)N[C@@H](CC(=O)O)C(=O)N[C@@H](Cc1c[nH]c2ccccc12)C(=O)N[C@@H](CC(N)=O)C(=O)N[C@@H](C)C(N)=O)[C@@H](C)O` [Grybi-ACP] ([pGlu]ITFSRDWNA-NH2), for which, in assay [1], the “Activity on ACPR” value is reported as “failed to reach full ACPR activation”; the “Fold-reduction in activity relative to AedaeACP” value is given as 13.6 fold; the EC50 came to 326 nM.
